Measurements as given in the NIST ThermoML archive (doi:10.1016/j.jct.2015.02.011).
Numbers after ± are expanded uncertainties.

Assay: xn = mol fraction of the nth substance listed
Conditions: 100.7 kPa, Liquid; for speed of sound: Frequency=3 MHz, Sing-around technique in a fixed-path interferometer; for mass density: Vibrating tube method

CCCCn1cc[n+](C)c1.F[P-](F)(F)(F)(F)F [1-butyl-3-methylimidazolium hexafluorophosphate] + C1CCOC1
Conditions	mass density [kg/m3]	speed of sound [m/s]
293.15 K, x1 = 0.0871	995.952 ± 1.6	1325.2 ± 2.3
293.15 K, x1 = 0.1801	1081.84 ± 1.6	1346.3 ± 2.3
293.15 K, x1 = 0.2893	1156.12 ± 1.6	1370.2 ± 2.4
293.15 K, x1 = 0.3939	1209.17 ± 1.7	1390.1 ± 2.4
293.15 K, x1 = 0.4994	1250.52 ± 1.7	1405.6 ± 2.5
293.15 K, x1 = 0.5709	1274.06 ± 1.8	1414.3 ± 2.6
293.15 K, x1 = 0.7163	1313.42 ± 1.9	1431.1 ± 2.7
293.15 K, x1 = 0.8069	1333.96 ± 2	1439.1 ± 2.7
293.15 K, x1 = 0.9012	1352.78 ± 2.1	1447.9 ± 2.8
293.15 K, x1 = 1	1370.41 ± 2.2	1454.6 ± 2.9
298.15 K, x1 = 0.0871	993.083 ± 1.6	1305.7 ± 2.3
298.15 K, x1 = 0.1801	1078.67 ± 1.6	1329.4 ± 2.3
298.15 K, x1 = 0.2893	1153.55 ± 1.6	1354.8 ± 2.4
298.15 K, x1 = 0.3939	1206.51 ± 1.7	1375.2 ± 2.4
298.15 K, x1 = 0.4994	1247.95 ± 1.7	1391.7 ± 2.5
298.15 K, x1 = 0.5709	1270.99 ± 1.8	1400.3 ± 2.6
298.15 K, x1 = 0.7163	1309.95 ± 1.9	1419.2 ± 2.7
298.15 K, x1 = 0.8069	1330.6 ± 2	1428.8 ± 2.7
298.15 K, x1 = 0.9012	1349.01 ± 2.1	1436.5 ± 2.8
298.15 K, x1 = 1	1366.26 ± 2.2	1442.3 ± 2.9
303.15 K, x1 = 0.0871	989.595 ± 1.6	1286.1 ± 2.3
303.15 K, x1 = 0.1801	1076.18 ± 1.6	1313.5 ± 2.3
303.15 K, x1 = 0.2893	1151.06 ± 1.6	1337.9 ± 2.4
303.15 K, x1 = 0.3939	1204.02 ± 1.7	1359.3 ± 2.4
303.15 K, x1 = 0.4994	1245.06 ± 1.7	1375.7 ± 2.5
303.15 K, x1 = 0.5709	1268.4 ± 1.8	1386.6 ± 2.6
303.15 K, x1 = 0.7163	1306.96 ± 1.9	1406.2 ± 2.7
303.15 K, x1 = 0.8069	1327.01 ± 2	1416.4 ± 2.7
303.15 K, x1 = 0.9012	1345.27 ± 2.1	1425.1 ± 2.8
303.15 K, x1 = 1	1362.13 ± 2.2	1430.2 ± 2.9
308.15 K, x1 = 0.0871	986.865 ± 1.6	1264.2 ± 2.3
308.15 K, x1 = 0.1801	1073.65 ± 1.6	1294.6 ± 2.3
308.15 K, x1 = 0.2893	1148.53 ± 1.6	1322.9 ± 2.4
308.15 K, x1 = 0.3939	1201.49 ± 1.7	1344.4 ± 2.4
308.15 K, x1 = 0.4994	1242.03 ± 1.7	1362.9 ± 2.5
308.15 K, x1 = 0.5709	1265.07 ± 1.8	1374.2 ± 2.6
308.15 K, x1 = 0.7163	1303.84 ± 1.9	1394.4 ± 2.7
308.15 K, x1 = 0.8069	1323.78 ± 2	1404.5 ± 2.7
308.15 K, x1 = 0.9012	1341.44 ± 2.1	1414.8 ± 2.8
308.15 K, x1 = 1	1357.86 ± 2.2	1418.4 ± 2.9
313.15 K, x1 = 0.0871	983.099 ± 1.6	1243.5 ± 2.3
313.15 K, x1 = 0.1801	1072.08 ± 1.6	1276.9 ± 2.3
313.15 K, x1 = 0.2893	1145.97 ± 1.6	1306.3 ± 2.4
313.15 K, x1 = 0.3939	1198.83 ± 1.7	1329.7 ± 2.4
313.15 K, x1 = 0.4994	1239.66 ± 1.7	1347.2 ± 2.5
313.15 K, x1 = 0.5709	1261.91 ± 1.8	1358.4 ± 2.6
313.15 K, x1 = 0.7163	1300.27 ± 1.9	1380.9 ± 2.7
313.15 K, x1 = 0.8069	1320.11 ± 2	1392.8 ± 2.7
313.15 K, x1 = 0.9012	1337.58 ± 2.1	1398.9 ± 2.8
313.15 K, x1 = 1	1353.88 ± 2.2	1406.7 ± 2.9
318.15 K, x1 = 0.0871	979.072 ± 1.6	1220.9 ± 2.3
318.15 K, x1 = 0.1801	1069.07 ± 1.6	1258.4 ± 2.3
318.15 K, x1 = 0.2893	1144.86 ± 1.6	1289.6 ± 2.4
318.15 K, x1 = 0.3939	1197.02 ± 1.7	1313.9 ± 2.4
318.15 K, x1 = 0.4994	1238.26 ± 1.7	1333 ± 2.5
318.15 K, x1 = 0.5709	1259.52 ± 1.8	1344 ± 2.6
318.15 K, x1 = 0.7163	1297.6 ± 1.9	1367.3 ± 2.7
318.15 K, x1 = 0.8069	1316.65 ± 1.9	1380.3 ± 2.7
318.15 K, x1 = 0.9012	1333.97 ± 2.1	1389.5 ± 2.8
318.15 K, x1 = 1	1349.88 ± 2.2	1395.2 ± 2.9
323.15 K, x1 = 0.0871	974.942 ± 1.7	1200.6 ± 2.3
323.15 K, x1 = 0.1801	1067.03 ± 1.6	1239.9 ± 2.3
323.15 K, x1 = 0.2893	1143.59 ± 1.7	1272.2 ± 2.4
323.15 K, x1 = 0.3939	1195.57 ± 1.7	1295.6 ± 2.4
323.15 K, x1 = 0.4994	1235.58 ± 1.7	1319.5 ± 2.5
323.15 K, x1 = 0.5709	1256.95 ± 1.8	1330.6 ± 2.5
323.15 K, x1 = 0.7163	1294.51 ± 1.9	1355.4 ± 2.7
323.15 K, x1 = 0.8069	1312.86 ± 1.9	1368.5 ± 2.7
323.15 K, x1 = 0.9012	1329.92 ± 2.1	1378.6 ± 2.8
323.15 K, x1 = 1	1345.57 ± 2.2	1384.1 ± 2.9

CCCCCCn1cc[n+](C)c1.F[P-](F)(F)(F)(F)F [1-hexyl-3-methylimidazolium hexafluorophosphate] + C1CCOC1
Conditions	mass density [kg/m3]	speed of sound [m/s]
293.15 K, x1 = 0.1036	1001.33 ± 1.6	1328.7 ± 2.3
293.15 K, x1 = 0.2002	1074.85 ± 1.6	1349.2 ± 2.3
293.15 K, x1 = 0.2868	1123.69 ± 1.6	1366.6 ± 2.4
293.15 K, x1 = 0.4134	1175.92 ± 1.7	1385.4 ± 2.5
293.15 K, x1 = 0.5222	1209.22 ± 1.7	1398.2 ± 2.5
293.15 K, x1 = 0.6239	1233.91 ± 1.8	1408.8 ± 2.6
293.15 K, x1 = 0.6951	1248.83 ± 1.8	1414.7 ± 2.7
293.15 K, x1 = 0.7978	1267.15 ± 1.9	1423.7 ± 2.7
293.15 K, x1 = 0.8953	1282.62 ± 2	1430.4 ± 2.8
293.15 K, x1 = 1	1296.72 ± 2.1	1437.7 ± 2.9
298.15 K, x1 = 0.1036	996.523 ± 1.6	1308.8 ± 2.3
298.15 K, x1 = 0.2002	1070.1 ± 1.6	1330.9 ± 2.3
298.15 K, x1 = 0.2868	1119.03 ± 1.6	1348.8 ± 2.4
298.15 K, x1 = 0.4134	1171.43 ± 1.7	1370 ± 2.5
298.15 K, x1 = 0.5222	1204.92 ± 1.7	1383.3 ± 2.5
298.15 K, x1 = 0.6239	1229.78 ± 1.8	1394.6 ± 2.6
298.15 K, x1 = 0.6951	1244.72 ± 1.8	1400.1 ± 2.7
298.15 K, x1 = 0.7978	1263.02 ± 1.9	1409.8 ± 2.7
298.15 K, x1 = 0.8953	1278.55 ± 2	1417.1 ± 2.8
298.15 K, x1 = 1	1292.62 ± 2.1	1424.3 ± 2.9
303.15 K, x1 = 0.1036	991.33 ± 1.6	1287.5 ± 2.3
303.15 K, x1 = 0.2002	1065.16 ± 1.6	1311.7 ± 2.3
303.15 K, x1 = 0.2868	1114.11 ± 1.6	1331.2 ± 2.4
303.15 K, x1 = 0.4134	1166.92 ± 1.7	1352.9 ± 2.5
303.15 K, x1 = 0.5222	1200.49 ± 1.7	1367.7 ± 2.5
303.15 K, x1 = 0.6239	1225.49 ± 1.8	1379.7 ± 2.6
303.15 K, x1 = 0.6951	1240.35 ± 1.8	1386.4 ± 2.6
303.15 K, x1 = 0.7978	1258.87 ± 1.9	1395.8 ± 2.7
303.15 K, x1 = 0.8953	1274.54 ± 2	1403.8 ± 2.8
303.15 K, x1 = 1	1288.61 ± 2.1	1411.5 ± 2.9
308.15 K, x1 = 0.1036	986.423 ± 1.6	1267.3 ± 2.3
308.15 K, x1 = 0.2002	1060.21 ± 1.6	1293.6 ± 2.3
308.15 K, x1 = 0.2868	1109.47 ± 1.6	1314.3 ± 2.4
308.15 K, x1 = 0.4134	1162.51 ± 1.7	1338.2 ± 2.5
308.15 K, x1 = 0.5222	1196.52 ± 1.7	1353.7 ± 2.5
308.15 K, x1 = 0.6239	1221.41 ± 1.8	1365.4 ± 2.6
308.15 K, x1 = 0.6951	1236.28 ± 1.8	1372.3 ± 2.6
308.15 K, x1 = 0.7978	1255.02 ± 1.9	1382.1 ± 2.7
308.15 K, x1 = 0.8953	1270.73 ± 2	1390.9 ± 2.8
308.15 K, x1 = 1	1284.72 ± 2.1	1399 ± 2.9
313.15 K, x1 = 0.1036	981.583 ± 1.6	1247 ± 2.3
313.15 K, x1 = 0.2002	1055.56 ± 1.6	1275.7 ± 2.3
313.15 K, x1 = 0.2868	1105.02 ± 1.6	1298 ± 2.4
313.15 K, x1 = 0.4134	1158.19 ± 1.7	1322.6 ± 2.5
313.15 K, x1 = 0.5222	1192.16 ± 1.7	1339.2 ± 2.5
313.15 K, x1 = 0.6239	1217.23 ± 1.8	1351.9 ± 2.6
313.15 K, x1 = 0.6951	1232.35 ± 1.8	1358.4 ± 2.6
313.15 K, x1 = 0.7978	1251.08 ± 1.9	1369.7 ± 2.7
313.15 K, x1 = 0.8953	1266.85 ± 2	1379.6 ± 2.8
313.15 K, x1 = 1	1280.82 ± 2.1	1386.9 ± 2.9
318.15 K, x1 = 0.1036	976.176 ± 1.6	1226.8 ± 2.3
318.15 K, x1 = 0.2002	1050.65 ± 1.6	1257.8 ± 2.3
318.15 K, x1 = 0.2868	1100.21 ± 1.6	1281.7 ± 2.4
318.15 K, x1 = 0.4134	1153.59 ± 1.7	1307.3 ± 2.5
318.15 K, x1 = 0.5222	1187.55 ± 1.7	1324.1 ± 2.5
318.15 K, x1 = 0.6239	1212.63 ± 1.8	1337.8 ± 2.6
318.15 K, x1 = 0.6951	1227.99 ± 1.8	1345.7 ± 2.6
318.15 K, x1 = 0.7978	1246.87 ± 1.9	1357.4 ± 2.7
318.15 K, x1 = 0.8953	1262.74 ± 2	1367.7 ± 2.8
318.15 K, x1 = 1	1276.37 ± 2.1	1375 ± 2.9
323.15 K, x1 = 0.1036	971.026 ± 1.7	1207.5 ± 2.3
323.15 K, x1 = 0.2002	1045.83 ± 1.6	1240.6 ± 2.3
323.15 K, x1 = 0.2868	1095.6 ± 1.6	1265.7 ± 2.4
323.15 K, x1 = 0.4134	1148.94 ± 1.7	1291.2 ± 2.5
323.15 K, x1 = 0.5222	1183.5 ± 1.7	1309.2 ± 2.5
323.15 K, x1 = 0.6239	1208.58 ± 1.8	1323.8 ± 2.6
323.15 K, x1 = 0.6951	1224.2 ± 1.8	1332.8 ± 2.6
323.15 K, x1 = 0.7978	1243.02 ± 1.9	1345.3 ± 2.7
323.15 K, x1 = 0.8953	1258.69 ± 2	1355.6 ± 2.8
323.15 K, x1 = 1	1272.45 ± 2.1	1363.3 ± 2.9
